Target: T1, recombinant nucleolin (Homo sapiens, UniProt P19338)
T1 construct: without the N-terminal acidic stretches domain
Experiment: Nucleolin/nucleic acid ligand interaction, gel retardation assay
Format: binding
Set-up: key: A “+” represents the weakest nucleolin affinity; a “++++” represents the strongest nucleolin affinity
Conditions: relative affinity of each nucleic acid ligand for nucleolin; nucleolin ~250 nM, 32P-labeled ligand 10 or 250 nM, 30 minutes at room temperature
Procedure: The following assays can be used to assess the effects of compounds on interactions between nucleolin and nucleic acid ligands capable of forming quadruplex (QP) and hairpin (HP) secondary structures. Nucleic acid ligands tested were a cMyc QP DNA having nucleotide sequence 5′-[…]-3′ and a HP pre-rRNA region to which nucleolin binds, having the sequence 5′-[…]-3′. In the assays, recombinant nucleolin (˜250 nM), which has been fused to maltose binding protein, and has the sequence under accession number NM_005381 without the N-terminal acidic stretches domain, is incubated with each of the two ^32P-labeled nucleic acid ligands (10 or 250 nM). Nucleolin and the nucleic acid ligand are incubated in the presence or absence of a test compound 7 in an incubation buffer (12.5 mM Tris, pH 7.6, 60 mM KCl, 1 mM MgCl2, 0.1 mM EDTA, 1 mM DTT, 5% glycerol, 0.1 mg/ml BSA) for 30 minutes at room temperature.
The resulting complexes are separated on a 6% DNA retardation gel using 0.5× TBE with 20 mM KCl as a running buffer. The assay also can be conducted using nucleic acid ligands derived from human ribosomal DNA, whereby one can identify a compound that selectively modulates formation of a nucleolin/nucleic acid complex that depends on the conformation of the nucleic acid. Sequences of suitable nucleic acids are shown in the preceding example. […] A “+” represents the weakest nucleolin affinity and a “++++” represents the strongest nucleolin affinity. […] Using nucleic acids such as these having known conformational properties, one can identify a compound such as the compounds described herein that selectively interferes with binding of nucleolin to a particular quadruplex structure.

T1 sequence (P19338 284-710 limits assumed): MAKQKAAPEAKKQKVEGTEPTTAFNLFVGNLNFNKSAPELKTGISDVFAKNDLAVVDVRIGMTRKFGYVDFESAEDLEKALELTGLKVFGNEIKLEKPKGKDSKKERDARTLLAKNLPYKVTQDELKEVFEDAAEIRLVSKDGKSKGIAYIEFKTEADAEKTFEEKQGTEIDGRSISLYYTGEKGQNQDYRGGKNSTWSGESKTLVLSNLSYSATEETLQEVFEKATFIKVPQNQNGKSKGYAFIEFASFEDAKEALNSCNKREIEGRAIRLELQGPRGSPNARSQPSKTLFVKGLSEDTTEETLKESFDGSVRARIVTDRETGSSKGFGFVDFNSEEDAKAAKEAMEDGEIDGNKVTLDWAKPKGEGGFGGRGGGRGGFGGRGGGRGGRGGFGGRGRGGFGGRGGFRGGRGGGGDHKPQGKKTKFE

| Molecule | Affinity for Nucleolin |
| --- | --- |
| 8511NT: human rDNA-derived DNA oligonucleotide GGGGGTGGGCGGGCGGGGCCGGGGGTGGG (chemistry not given here) [Compound 8511NT] | ++++ |
| 7733T: human rDNA-derived DNA oligonucleotide GGGAGGGGCACGGGCCGGGGGCGGGACGGG (chemistry not given here) [Compound 7733T] | + |
| 6183NT: human rDNA-derived DNA oligonucleotide GGGTCGGGGGCGGTGGTGGGCCCGCGGGGG (chemistry not given here) [Compound 6183NT] | + |
| 11028NT: human rDNA-derived DNA oligonucleotide GGGGCGCGGCGGGGGGAGAAGGGTCGGGGCGGCAGGGG (chemistry not given here) [Compound 11028NT] | + |
| 8749NT: human rDNA-derived DNA oligonucleotide GGGAGGGCGCGCGGGTCGGGG (chemistry not given here) [Compound 8749NT] | + |
| 8762NT: human rDNA-derived DNA oligonucleotide CGGAGGGCGCGCGGGTCGGGGCGGCGGCGGCGGCGGCGGTGGCGGCGGCGGCGGGGGCGGCGGG (nucleic acid, chemistry not given here) DNA: CGGAGGGCGCGCGGGTCGGGGCGGCGGCGGCGGCGGCGGTGGCGGCGGCGGCGGGGGCGGCGGG | ++++ |

— patent US20100305136A1, “QUINOLONE ANALOGS DERIVATIZED WITH SULFONIC ACID, SULFONATE OR SULFONAMIDE” (priority 2006, published 2010)
